Results taken from patent publication US7868019B2, “Dermatitis treating agent” (Mitsubishi Tanabe Pharma Corporation, priority 2005, dated 2011).

What was measured:
[1] = test system: Contact Dermatitis Model; assay: Contact dermatitis model (oxazolone sensitization and challenge, ear swelling); type: in vivo, BALB/c male mice; settings: BALB/c mice, oxazolone-sensitized; topical challenge on right ear at Day 7 with 0.5% oxazolone containing 1% (w/v) test compound; ear thickness 24 hours after challenge vs control
Description: (1) Effects of Test Compounds in Contact Dermatitis Model (Method) BALB/c male mice (BALB/c AnNCrlCrlj, 5-weeks old, acclimating term: one week, body weight: 20 to 30 g, one group: 4 to 6 mice, available from CHARLES RIVER LABORATORIES JAPAN, INC.) were sensitized by epicutaneous application of 100 μL 0.5% (w/v) oxazolone solution (Solvent: acetone) on the shaved abdomen (Day 0). At the 7th day (Day 7) after sensitization, mice were challenged on both sides of right ears by topical application of 20 μL (10 μL for each side) 0.5% (w/v) oxazolone solution containing 1% (w/v) of respective test compounds (Solvent: acetone or an equal amount mixture of acetone/ethanol). Ear thickness was measured before and 24 hours after challenge by using a thickness gauge. In the control group, sensitized animals were challenged with 20 μL 0.5% (w/v) oxazolone solution containing no test compound (Solvent: acetone) on right ears. Effects of the respective test compounds were expressed as ear swelling inhibitory rate (%) given by the following formula. Ear swelling inhibitory rate (%)=[1−(mean ear swelling of group treated with test compound/mean ear swelling of control group)]×100 Note) Ear swelling=Ear thickness 24 hours after challenge at Day 7−Ear thickness before challenge at Day 7 (2) Effects of Test Compounds on Dermatitis Models Induced by Repeated Topical Application of Hapten (Method)

[2] = test system: Dermatitis Models Induced by Repeated Topical Application of Hapten; assay: Dermatitis model induced by repeated topical application of hapten (oxazolone, ear swelling); type: in vivo, BALB/c male mice; settings: BALB/c mice; repeated topical challenge (Day 0, 2, 4, 7, 9) with 0.5% oxazolone containing 1% (w/v) test compound; ear thickness 24 hours after final challenge at Day 9 vs control
Description: Effects of the respective test compounds were expressed as ear swelling inhibitory rate (%) given by the following formula. Ear swelling inhibitory rate (%)=[1−(mean ear swelling of group treated with test compound/mean ear swelling of control group)]×100 Note) Ear swelling=Ear thickness 24 hours after challenge at Day 7−Ear thickness before challenge at Day 7 (2) Effects of Test Compounds on Dermatitis Models Induced by Repeated Topical Application of Hapten (Method) […], BALE/c male mice (BALB/c AnNCrlCrlj, 5-weeks old, acclimating term: one week, body weight: 20 to 30 g, one group: 4 to 6 mice, available from CHARLES RIVER LABORATORIES JAPAN, INC.) were sensitized on both sides of right ears by a topical application of 20 μL (10 μL for each side) 0.5% (w/v) oxazolone solution (Solvent: acetone)(Day−7). At the respective points of the 7th day (Day 0), 9th day (Day 2), 11th day (Day 4), 14th day (Day 7) and 16th day (Day 9) after sensitization, mice were challenged on the both sides of right ears by topical application of 20 μL (10 μL for each side) 0.5% (w/v) oxazolone solution containing 1% (w/v) of the respective test compounds (Solvent: acetone or an equal amount mixture of acetone/ethanol). Ear thickness was measured before challenge of the test compound solution or suspension by using a thickness gauge. At the final day (Day 9), ear thickness was measured also 24 hours after challenge. In control group, sensitized animals were challenged with 20 μL 0.5% (w/v) oxazolone solution containing no test compound (Solvent: acetone) on right ears. Effects of the respective test compounds were expressed as ear swelling inhibitory rate (%) given by following formula. Ear swelling inhibitory rate (%)=[1−(mean ear swelling of group treated with test compound/mean ear swelling of control group)]×100 Note) Ear swelling=(Thickness of ear 24 hours after final challenge at Day 9)−(Thickness of ear before sensitization at Day−7)

| Compound | Ear swelling inhibitory rate (%) Contact dermatitis model [1] | Ear swelling inhibitory rate (%) Dermatitis model induced by repeated application of Hapten [2] |
| --- | --- | --- |
| 1-[2-[4-(dimethylaminophenyl)phthalazin-1(2H)-one-2-yl]-pyridin-4-yl]-2,3-bis(hydroxymethyl)-6,7-dimethoxy-naphthalene [(9)] | 52.0% | 60.0% |
| COc1cc2cc(CO)c(CO)c(-c3ccnc(-n4c(=O)cc(NCCCNC5CCCCC5)c5ccccc54)c3)c2cc1OC [(8), 1-[2-[1,2-dihydro-4-[3-(cyclohexylamino)propylamino]-2-oxoquinolin-1-yl]pyridin-4-yl]-2,3-bis(hydroxymethyl)-6,7-dimethoxynaphthalene] | 75.0% | 37.0% |
| COc1cc2cc(CO)c(CO)c(-c3ccnc(-n4nc(-c5cccnc5)c5cc(OC)c(OC)cc5c4=O)c3)c2cc1OC [(10), 1-[2-[6,7-dimethoxy-4-(3-pyridyl)phthalazin-1(2H)-one-2-yl]pyridin-4-yl]-2,3-bis(hydroxymethyl)-6,7-dimethoxy-naphthalene] | 66.0% | – |
| (3S)-1-[2-[4-(dimethylaminophenyl)phthalazin-1(2H)-one-2-yl]pyridin-4-yl]-3,4-dihydro-3-hydroxymethyl-6,7-dimethoxy-isoquinoline [(11)] | 69.0% | 51.0% |
